Assays:
Type in all cases: in vivo
Meloidogyne incognita [1] = experiment: Meloidogyne incognita test: compound solution poured into pots with soil (loamy sand), salad seeds, gall formation after 21 days; settings: application rate 2 ppm, salad in soil
Description: Solvent: 7 parts by weight of dimethylformamide Emulsifier: 2.5 parts by weight of alkylarylpolyglycolether To produce a suitable preparation of active compound, 1 part by weight of active compound is mixed with the stated amount of solvent and emulsifier and is diluted with water to the desired concentration. In the calculation of the concentration the soil volume has to be included. […] Further test concentrations are prepared by dilution with water. The compound solution is poured into pots filled with soil (loamy sand). A suspension containing eggs and larvae of the southern root-knot nematode (Meloidogyne incognita) is added, salad seeds are spread on the soil surface and covered with quartz sand. The salad seeds germinate and the seedlings grow. Galls develop on the roots. After 21 days the nematicidal activity is determined on the basis of the percentage of gall formation. 100% means no galls were found; 0% means the number of galls found on the roots of the treated plants was equal to that in untreated control plants.

Meloidogyne incognita [2] = experiment: Meloidogyne incognita test (MELGIN): sand, salad seeds, gall formation after 14 days; settings: application rate 20 ppm, salad seedlings in sand
Description: Solvent: 125.0 parts by weight of acetone To produce a suitable preparation of active compound, 1 part by weight of active compound is mixed with the stated amount of solvent, and the concentrate is diluted with water to the desired concentration. Vessels are filled with sand, a solution of the active ingredient, a suspension containing eggs and larvae of the southern root-knot nematode (Meloidogyne incognita) and salad seeds. The salad seeds germinate and the seedlings grow. Galls develop in the roots. After 14 days the nematicidal activity is determined on the basis of the percentage of gall formation. 100% means that no galls were found; 0% means that the number of galls found on the roots of the treated plants was equal to that in untreated control plants.

Meloidogyne incognita [3] = experiment: Meloidogyne incognita spray test (MELGIN): leaves of salad and tomato plants sprayed, gall formation 24 days after spraying
Description: Solvent: 7 parts by weight of dimethylformamide Emulsifier: alkylaryl polyglycol ether To produce a suitable preparation of active compound, 1 part by weight of active compound is mixed with the stated amount of solvent and is diluted with water, containing an emulsifier concentration of 1000 ppm, to the desired concentration. Further test concentrations are prepared by dilution with emulsifier containing water. Ammonium sulfate and rape oil methyl ester (RME) in a dosage of 1000 ppm are added to the desired concentration. Salad and tomato plants are treated by being sprayed on the leaves with the preparation of the active compound of the desired concentration, the soil surface is covered by a protection film. 3 days after spraying, a suspension containing eggs and larvae of the southern root-knot nematode (Meloidogyne incognita) is added on the soil surface. Galls develop on the roots. 24 days after spraying, the nematicidal activity is determined on the basis of the percentage of gall formation. 100% means no galls were found; 0% means the number of galls found on the roots of the treated plants was equal to that in untreated control plants. […] Test plant: Tomato, Lycopersicon esculentum Test plant: Salad, Lactuca sativa

[4] = test plant Salad, Lactuca sativa, leaf spray 100 ppm
[5] = test plant Salad, Lactuca sativa, leaf spray 1000 ppm
[6] = test plant Salad, Lactuca sativa, leaf spray 2500 ppm
[7] = test plant Tomato, Lycopersicon esculentum, leaf spray 100 ppm
[8] = test plant Tomato, Lycopersicon esculentum, leaf spray 1000 ppm
[9] = test plant Tomato, Lycopersicon esculentum, leaf spray 2500 ppm

Row | Structure (SMILES) | nematicidal activity on the basis of the percentage of gall formation (100% = no galls) (Meloidogyne incognita [1]) | nematicidal activity on the basis of the percentage of gall formation (100% = no galls) (Meloidogyne incognita [2]) | nematicidal activity on the basis of the percentage of gall formation (100% = no galls) (Meloidogyne incognita [3]; [4]) | nematicidal activity on the basis of the percentage of gall formation (100% = no galls) (Meloidogyne incognita [3]; [5]) | nematicidal activity on the basis of the percentage of gall formation (100% = no galls) (Meloidogyne incognita [3]; [6]) | nematicidal activity on the basis of the percentage of gall formation (100% = no galls) (Meloidogyne incognita [3]; [7]) | nematicidal activity on the basis of the percentage of gall formation (100% = no galls) (Meloidogyne incognita [3]; [8]) | nematicidal activity on the basis of the percentage of gall formation (100% = no galls) (Meloidogyne incognita [3]; [9])
1 | O=C(NS(=O)(=O)c1cc(C(F)(F)F)ccc1Cl)c1cn2cc(C(F)(F)F)sc2n1 [Example I-1-4] | 97% | 100% | 0% | 20% | 75% | 25% | 35% | 98%
2 | COc1ccc(Cl)c(S(=O)(=O)NC(=O)c2cn3c(C)c(C(F)(F)F)sc3n2)c1 [Example I-1-159] | 95% | 100% | 25% | 60% | 95% | 0% | 75% | 95%
3 | Cc1c(C(F)(F)F)sc2nc(C(=O)NS(=O)(=O)c3c(Cl)cccc3Cl)cn12 [Example I-1-158] | 98% | 90% | 15% | 75% | 80% | 0% | 0% | 50%
